According to US7612211B2, “Benzimidazole TRPV1 inhibitors” (Janssen Pharmaceutica N.V., priority 2006, dated 2009):

Tests used:
male Sprague-Dawley rats = assay: CFA-induced inflammatory pain, reversal of thermal hyperalgesia (radiant heat paw stimulator); assay type: in vivo; conditions: Rattus norvegicus, po, 10 mg/kg orally, 24 h after CFA, maximal during the 300 min test, read-out: % Reversal (maximal percent reversal of hypersensitivity)
Protocol: Compounds of the present invention were tested in animal models of inflammation and inflammatory pain. To assess the ability of test compounds to reverse thermal hyperalgesia, baseline response latencies on a radiant heat (RH) paw stimulator were obtained before an intraplantar injection of 100 μL (1 μg/μL) CFA (1:1 CFA:saline) in male Sprague-Dawley rats. Only withdrawal responses that were quick hind paw movements (with or without licking of the hind paw) were recorded. Paw movements associated with locomotion or a shifting of weight were not considered a withdrawal response. The stimulus intensity that produced 10-15 sec baseline withdrawal latencies was used and a maximum cutoff of 20 sec was imposed. Hypersensitivity was evaluated 24 h after CFA.
Following the post-inflammogen latency assessment, rats were orally dosed (2.5 mL/kg) with test compound (10 mg/kg) or vehicle (20% hydroxypropyl beta cyclodextran). To determine the time of peak effect, latencies were redetermined 30, 60, 100, 180 and 300 min after compound administration.
Data are presented as the maximal percent reversal of hypersensitivity obtained during the 300 min test, which was calculated for each animal according to the formula: % reversal=100%×(treatment response−post-inflammogen response)/(pre-inflammogen response−post-inflammogen response)

hTRPV1 [1] = biological target: T1, hTRPV1 (Homo sapiens, UniProt Q8NER1); assay: Human TRPV1 (hTRPV1) functional assay, FLIPR intracellular Ca2+, capsaicin challenge; assay type: cell-based; conditions: HEK293 cells expressing hTRPV1, capsaicin 0.030 μM challenge; for IC50: derived from a variety of test concentrations, read-out: IC50 value (symbol c); for inhibition at 0.5 µM: test concentration of 0.5 μm, read-out: percent inhibition (symbol a); for inhibition at 0.2 µM: test concentration of 0.2 μm, read-out: percent inhibition (symbol b)
T1 construct: expressed in transfected cells; host or cells: HEK293
Procedure, shortened: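 HEK293 cells expressing the channel, loaded with Calcium 3 dye, were exposed to compounds for 5 min before capsaicin 0.030 μM (~80% maximal). FLIPR Ca2+ read; IC50/EC50 from quadruplicate concentration-response, or percent inhibition at 0.5 μm or 0.2 μm.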

hTRPV1 [2] = biological target: T1, hTRPV1; assay: Human TRPV1 [3H]RTX binding assay (membranes of transfected HEK293 cells); conditions: inhibition of [3H]RTX binding
Protocol: Compounds of the present invention were tested for their ability to inhibit the binding of [^3H] RTX to hTRPV1 receptors in a [^3H] RTX binding assay as previously described (See, PCT International Application WO02/33411A1 and Elfrida G. R. et al., J. Pharmacol. Exp. Ther., 2002, 300(1): 9-17.)
HEK293 cells were transfected with hTRPV1 vanilloid receptors and washed with Hank's balanced Salt Solution, dissociated with cell dissociation buffer (Sigma), and then centrifuged at 1000×g for 5 min. Cell pellets were homogenized in cold 20 mM HEPES buffer (pH=7.4), containing 5.8 mM NaCl, 320 mM sucrose, 2 mM MgCl2, 0.75 CaCl2 and 5 mM KCl and centrifuged at 1000×g for 15 min. The resultant supernatant was then centrifuged at 40,000×g for 15 min. The pelleted membranes were stored in a freezer at −80° C.
Approximately 120 μg protein/mL from membranes were incubated with indicated concentrations of [^3H]RTX in 0.5 mL of the HEPES buffer (pH 7.4) containing 0.25 mg/mL fatty acid-free bovine serum albumin at 37° C. for 60 min. […] Bound radioactivity was quantified by scintillation counting. Non-specific binding was measured in the presence of 200 nM unlabeled RTX.
Data were calculated according to the equation: % inhibition=100%×[(total binding−binding)/(total binding−non specific binding)]. Ki values were calculated using a Prism program.

T1 sequence (Q8NER1 whole entry): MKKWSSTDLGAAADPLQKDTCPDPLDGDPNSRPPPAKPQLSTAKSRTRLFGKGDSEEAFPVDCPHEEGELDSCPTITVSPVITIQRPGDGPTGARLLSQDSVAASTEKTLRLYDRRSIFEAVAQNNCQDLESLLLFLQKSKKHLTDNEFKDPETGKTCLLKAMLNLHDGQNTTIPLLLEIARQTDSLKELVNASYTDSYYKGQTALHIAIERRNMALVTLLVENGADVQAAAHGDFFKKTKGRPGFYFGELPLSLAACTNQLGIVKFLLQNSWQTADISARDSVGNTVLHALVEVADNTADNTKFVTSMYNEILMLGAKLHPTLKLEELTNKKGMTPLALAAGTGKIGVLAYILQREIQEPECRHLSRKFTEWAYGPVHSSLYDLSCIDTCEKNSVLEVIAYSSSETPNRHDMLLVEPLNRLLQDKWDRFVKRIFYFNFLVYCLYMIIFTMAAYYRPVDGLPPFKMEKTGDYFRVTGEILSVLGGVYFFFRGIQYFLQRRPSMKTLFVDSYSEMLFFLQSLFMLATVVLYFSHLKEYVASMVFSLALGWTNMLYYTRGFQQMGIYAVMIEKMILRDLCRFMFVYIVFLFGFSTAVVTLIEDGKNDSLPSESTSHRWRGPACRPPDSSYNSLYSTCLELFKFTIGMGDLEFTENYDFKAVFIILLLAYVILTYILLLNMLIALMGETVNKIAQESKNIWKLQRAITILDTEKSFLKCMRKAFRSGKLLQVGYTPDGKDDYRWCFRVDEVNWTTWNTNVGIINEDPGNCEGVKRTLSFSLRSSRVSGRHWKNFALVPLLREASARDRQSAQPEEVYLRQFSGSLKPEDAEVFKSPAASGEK

CS(=O)(=O)Nc1ccccc1-c1ccc2[nH]c(COc3ccc(C(F)(F)F)cc3)nc2c1 [Cpd 101, N-{2-[2-(4-trifluoromethyl-phenoxymethyl)-1H-benzoimidazol-5-yl]-phenyl}-methanesulfonamide]
inhibition in vivo at 10 mg/kg (male Sprague-Dawley rats): 22%
IC50 (hTRPV1 [1]): 10 nM
inhibition at 0.5 µM (hTRPV1 [1]): 94%

NS(=O)(=O)c1ccccc1-c1ccc2[nH]c(COc3ccc(S(=O)(=O)C(F)(F)F)cc3)nc2c1 [Cpd 2, 2-[2-(4-trifluoromethanesulfonyl-phenoxymethyl)-1H-benzoimidazol-5-yl]-benzenesulfonamide]
inhibition in vivo at 10 mg/kg (male Sprague-Dawley rats): 80%
IC50 (hTRPV1 [1]): 10 nM
inhibition at 0.5 µM (hTRPV1 [1]): 99%

NS(=O)(=O)c1ccccc1-c1ccc2[nH]c(COc3ccc(C(F)(F)F)cc3)nc2c1 [Cpd 1, 2-[2-(4-trifluoromethyl-phenoxymethyl)-1H-benzoimidazol-5-yl]-benzenesulfonamide]
Ki (hTRPV1 [2]): 2.7 nM
inhibition in vivo at 10 mg/kg (male Sprague-Dawley rats): 85%
IC50 (hTRPV1 [1]): 3 nM
inhibition at 0.5 µM (hTRPV1 [1]): 100%

CC(C)(O)c1ccccc1-c1ccc2[nH]c(COc3ccc(C(F)(F)F)cc3)nc2c1 [Cpd 21, 2-{2-[2-(4-trifluoromethyl-phenoxymethyl)-1H-benzoimidazol-5-yl]-phenyl}-propan-2-ol]
inhibition in vivo at 10 mg/kg (male Sprague-Dawley rats): 100%
IC50 (hTRPV1 [1]): 14 nM
inhibition at 0.5 µM (hTRPV1 [1]): 99%

NS(=O)(=O)c1ccccc1-c1ccc2[nH]c(COc3ccc(OC(F)(F)F)cc3)nc2c1 [Cpd 16, 2-[2-(4-trifluoromethoxy-phenoxymethyl)-1H-benzoimidazol-5-yl]-benzenesulfonamide]
inhibition in vivo at 10 mg/kg (male Sprague-Dawley rats): 70%
IC50 (hTRPV1 [1]): 10 nM
inhibition at 0.5 µM (hTRPV1 [1]): 99%

CS(=O)(=O)c1ccccc1-c1ccc2[nH]c(COc3ccc(C(F)(F)F)cc3)nc2c1 [Cpd 98, 5-(2-methanesulfonyl-phenyl)-2-(4-trifluoromethyl-phenoxymethyl)-1H-benzoimidazole]
inhibition in vivo at 10 mg/kg (male Sprague-Dawley rats): 30%
IC50 (hTRPV1 [1]): 2.1 nM
inhibition at 0.5 µM (hTRPV1 [1]): 94%

CS(=O)(=O)c1ccccc1-c1ccc2[nH]c(COc3ccc(S(=O)(=O)C(F)(F)F)cc3)nc2c1 [Cpd 86, 5-(2-methanesulfonyl-phenyl)-2-(4-trifluoromethanesulfonyl-phenoxymethyl)-1H-benzoimidazole]
inhibition in vivo at 10 mg/kg (male Sprague-Dawley rats): 100%
IC50 (hTRPV1 [1]): 4.9 nM
inhibition at 0.2 µM (hTRPV1 [1]): 97%

CNS(=O)(=O)c1ccccc1-c1ccc2[nH]c(COc3ccc(C(F)(F)F)cc3)nc2c1 [Cpd 17, N-methyl-2-[2-(4-trifluoromethyl-phenoxymethyl)-1H-benzoimidazol-5-yl]-benzenesulfonamide]
inhibition in vivo at 10 mg/kg (male Sprague-Dawley rats): 100%
IC50 (hTRPV1 [1]): 1 nM
inhibition at 0.5 µM (hTRPV1 [1]): 100%

CS(=O)(=O)c1ccccc1-c1ccc2[nH]c(COc3ccc4ccccc4c3)nc2c1 [Cpd 80, 5-(2-methanesulfonyl-phenyl)-2-(naphthalen-2-yloxymethyl)-1H-benzoimidazole]
IC50 (hTRPV1 [1]): 14 nM
inhibition at 0.2 µM (hTRPV1 [1]): 99%

NS(=O)(=O)c1ccc(-c2ccc3[nH]c(COc4ccc(C(F)(F)F)cc4)nc3c2)cc1 [Cpd 105, 4-[2-(4-trifluoromethyl-phenoxymethyl)-1H-benzoimidazol-5-yl]-benzenesulfonamide]
inhibition at 0.5 µM (hTRPV1 [1]): 7%

NS(=O)(=O)c1ccccc1-c1ccc2[nH]c(COc3cccc(Cl)c3)nc2c1 [Cpd 6, 2-[2-(3-chloro-phenoxymethyl)-1H-benzoimidazol-5-yl]-benzenesulfonamide]
IC50 (hTRPV1 [1]): 102 nM
inhibition at 0.5 µM (hTRPV1 [1]): 87%

CC(=O)c1ccccc1-c1ccc2[nH]c(COc3ccc(C(F)(F)F)cc3)nc2c1 [Cpd 49, 1-{2-[2-(4-trifluoromethyl-phenoxymethyl)-1H-benzoimidazol-5-yl]-phenyl}-ethanone]
IC50 (hTRPV1 [1]): 106 nM
inhibition at 0.2 µM (hTRPV1 [1]): 89%

CNS(=O)(=O)c1ccccc1-c1ccc2[nH]c(COc3ccc(S(C)(=O)=O)cc3)nc2c1 [Cpd 19, 2-[2-(4-methanesulfonyl-phenoxymethyl)-1H-benzoimidazol-5-yl]-N-methyl-benzenesulfonamide]
IC50 (hTRPV1 [1]): 8 nM
inhibition at 0.5 µM (hTRPV1 [1]): 100%

CC(C)C(O)c1ccccc1-c1ccc2[nH]c(COc3ccc(C(F)(F)F)cc3)nc2c1 (centres unmarked) [Cpd 144, 2-methyl-1-{2-[2-(4-trifluoromethyl-phenoxymethyl)-1H-benzoimidazol-5-yl]-phenyl}-propan-1-ol]
IC50 (hTRPV1 [1]): 114 nM
inhibition at 0.2 µM (hTRPV1 [1]): 82%

OCc1ccc(-c2ccc3[nH]c(COc4ccc(C(F)(F)F)cc4)nc3c2)cc1 [Cpd 118, {4-[2-(4-trifluoromethyl-phenoxymethyl)-1H-benzoimidazol-5-yl]-phenyl}-methanol]
inhibition at 0.5 µM (hTRPV1 [1]): 2%

CNS(=O)(=O)c1ccccc1-c1ccc2[nH]c(C(F)(F)Oc3ccc(C(F)(F)F)cc3)nc2c1 [Cpd 140, 2-{2-[difluoro-(4-trifluoromethyl-phenoxy)-methyl]-1H-benzoimidazol-5-yl}-N-methyl-benzenesulfonamide]
IC50 (hTRPV1 [1]): 17 nM
inhibition at 0.5 µM (hTRPV1 [1]): 101%

CS(=O)(=O)c1ccccc1-c1ccc2[nH]c(COc3cccc(C(F)(F)F)c3)nc2c1 [Cpd 75, 5-(2-methanesulfonyl-phenyl)-2-(3-trifluoromethyl-phenoxymethyl)-1H-benzoimidazole]
IC50 (hTRPV1 [1]): 68 nM
inhibition at 0.2 µM (hTRPV1 [1]): 93%
